Columns and labels:
[1] = In vitro aerosolization performance from MDI (Next Generation Impactor); type: physicochemical
[2] = Chemical stability in propellant in uncoated aluminium cans (HPLC assay and total impurities); conditions: for % Assay (LC) / % total impurities: uncoated aluminium cans
[3] = HFA-134a propellant, T = 0, combination formulation, MDI
[4] = HFA-134a propellant, T = 1 month @ 40° C./75% RH, valve down
[5] = HFA-152a propellant, T = 0, combination formulation, MDI
[6] = HFA-152a propellant, T = 1 month @ 40° C./75% RH, valve down
[7] = HFA-134a, T = 1M @ 25° C./60% RH
[8] = HFA-134a, T = 1M @ 40° C./75% RH
[9] = HFA-134a, T = 3M @ 25° C./60% RH
[10] = HFA-134a, T = 3M @ 40° C./75% RH
[11] = HFA-152a, T = 1M @ 25° C./60% RH
[12] = HFA-152a, T = 1M @ 40° C./75% RH
[13] = HFA-152a, T = 3M @ 25° C./60% RH
[14] = HFA-152a, T = 3M @ 40° C./75% RH

Emitted Dose (μg ± S.D.) [1, 3] | Fine Particle Dose (μg ± S.D.) [1, 3] | MMAD ± GSD (μm) [1, 3] | Emitted Dose (μg ± S.D.) [1, 4] | Fine Particle Dose (μg ± S.D.) [1, 4] | MMAD ± GSD (μm) [1, 4] | Emitted Dose (μg ± S.D.) [1, 5] | Fine Particle Dose (μg ± S.D.) [1, 5] | MMAD ± GSD (μm) [1, 5] | Emitted Dose (μg ± S.D.) [1, 6] | Fine Particle Dose (μg ± S.D.) [1, 6] | MMAD ± GSD (μm) [1, 6] | % Assay (LC) ([2]; HFA-134a, Initial time T = 0) | % total impurities ([2]; HFA-134a, Initial time T = 0) | % Assay (LC) [2, 7] | % total impurities [2, 7] | % Assay (LC) [2, 8] | % total impurities [2, 8] | % Assay (LC) [2, 9] | % total impurities [2, 9] | Compound | other results
119.0 ± 2.0 µg | 38.8 ± 1.7 µg | 3.0 ± 1.8 μm | 112.8 ± 2.3 µg | 32.8 ± 1.9 µg | 3.1 ± 1.9 μm | 111.8 ± 0.7 µg | 51.5 ± 1.9 µg | 3.0 ± 1.9 μm | 105.6 ± 0.8 µg | 48.5 ± 1.5 µg | 2.9 ± 1.9 μm | 98.5% | <LoQ | 98.2% | 0.19% | 97.8% | 0.38% | 94.8% | 0.58% | CCC(=O)O[C@]1(C(=O)SCF)[C@H](C)C[C@H]2[C@@H]3C[C@H](F)C4=CC(=O)C=C[C@]4(C)[C@@]3(F)[C@@H](O)C[C@@]21C [Fluticasone Propionate, fluticasone propionate] | FPFED (%) fine particle fraction of the emitted dose [1, 3]: 32.6 ± 0.9%; FPFED (%) fine particle fraction of the emitted dose [1, 4]: 29.0 ± 1.9%; FPFED (%) fine particle fraction of the emitted dose [1, 5]: 46.1 ± 1.5%; FPFED (%) fine particle fraction of the emitted dose [1, 6]: 45.2 ± 1.2%; % Assay (LC) [2, 10]: 93.8%; % total impurities [2, 10]: 0.69%; % Assay (LC) ([2]; HFA-152a, Initial time T = 0): 98.5%; % total impurities ([2]; HFA-152a, Initial time T = 0): <LoQ; % Assay (LC) [2, 11]: 98.6%; % total impurities [2, 11]: <LoQ; % Assay (LC) [2, 12]: 98.4%; % total impurities [2, 12]: 0.18%; % Assay (LC) [2, 13]: 97.6%; % total impurities [2, 13]: <LoQ; % Assay (LC) [2, 14]: 97.2%; % total impurities [2, 14]: 0.58%
– | – | – | – | – | – | – | – | – | – | – | – | – | – | – | – | – | – | – | – | CCc1cc2c(cc1CC)CC(NC[C@H](O)c1ccc(O)c3[nH]c(=O)ccc13)C2 [Indacaterol, indacaterol] | chemical stability under accelerated test conditions, HFA-152a rather than HFA-134a ([2]; HFA-152a as aerosolization propellant versus HFA-134a): superior chemical stability
43.7 ± 0.2 µg | 12.6 ± 0.1 µg | 2.6 ± 2.4 μm | 38.7 ± 0.6 µg | 11.4 ± 0.4 µg | 2.8 ± 2.3 μm | 45.2 ± 0.7 µg | 21.0 ± 1.0 µg | 3.1 ± 2.2 μm | 44.2 ± 0.6 µg | 20.7 ± 0.8 µg | 3.0 ± 2.2 μm | 98.5% | 0.19% | 98.2% | 0.28% | 97.8% | 0.39% | 94.8% | 1.15% | C[N+]1(C)CCC(OC(=O)C(O)(c2ccccc2)C2CCCC2)C1 (stereo not shown) [Glycopyrronium Bromide, glycopyrronium bromide] | MMAD ([1]; HFA-134a based formulations): around 2.6 μm; % Assay (LC) [2, 10]: 93.8%; % total impurities [2, 10]: 1.38%; % Assay (LC) ([2]; HFA-152a, Initial time T = 0): 98.5%; % total impurities ([2]; HFA-152a, Initial time T = 0): 0.19%; % Assay (LC) [2, 11]: 98.6%; % total impurities [2, 11]: 0.25%; % Assay (LC) [2, 12]: 98.4%; % total impurities [2, 12]: 0.35%; % Assay (LC) [2, 13]: 97.6%; % total impurities [2, 13]: 0.55%; % Assay (LC) [2, 14]: 97.2%; % total impurities [2, 14]: 0.82%

— patent publication US20260174734A1, “PHARMACEUTICAL COMPOSITION” (MEXICHEM FLUOR S.A. DE C.V., priority 2016, published 2026)
